Tests used:
[1] = test system: Hela cells; assay: Annexin V/7-AAD staining, apoptosis in Hela cells; assay type: cell-based, human; conditions: 48 hr, EGCG 50 mcg/ml, Fol 900 nM, B12 1000 nM, Hyal 10 mcg/ml, FIG. 1
Procedure: The combined action of epigallocatechin gallate (EGCG) and at least one the following other agents: folic acid, vitamin B12, hyaluronic acid, in respect to the single substance, has been tested in vitro in immortalized cervical cancer cell line (HeLa).
The cells were seeded in […] flasks in low glucose DMEM, to which had been added FBS (Fetal Bovine Serum) 10%, L-Glu (L-glutamine) 1%, Pen/Strep (penicillin/streptomycin) 1%. The cells were kept in an incubator at a temperature of 37° C., 5% carbon dioxide and 95% humidity and maintained in culture, as described above, until they reached 50% confluency. On the day of the experiment the cells were treated as follows: • 1. […]
Apoptosis (cell death) was evaluated after 48 hours of treatment using the Annexin V kit. The expression of onco-suppressor genes (p53 and/or pRB) and/or viral E6 and/or E7 genes was evaluated after 48 hours of treatment through use of real time PCR. […]
Hela cells were cultured at confluence into 25 cm^2 flasks (Falcon, Becton Dickinson Labware, Franklin Lakes, NJ, USA) in complete medium. […] After 48 hr of treatment, cell status was assessed through use of the FITC Annexin V Apoptosis Detection Kit I according to the instructions of the manufacturer (BD Pharmingen™). […]

[2] = test system: viral protein E7; conditions: cited from earlier work
[3] = test system: epithelial cervical cell line infected with high-risk HPV (TLC1 and cervical cancer lines such as Hela and Me180); conditions: dose-dependent manner; cited from earlier work
[4] = test system: human cervical lesions; conditions: EGCG tablets (200 mg), 8-12 weeks, cited from earlier work
[5] = test system: p53 protein; conditions: cited from earlier work
[6] = test system: cell model in vitro; conditions: cited from earlier work
[7] = test system: vaginal atrophy; conditions: 12 post-menopausal women, 3-month treatment; cited from earlier work
[8] = cytology, colposcopy, histology, HPV DNA test

Q: For (−)-epigallocatechin gallate [EGCG], which “apoptosis (cell death) compared to control” value [1] is on record?
A: The value was “no differences in apoptosis levels”.

Q: And the “level of viral protein E7 expression” value [2]?
A: Its value is “reduces that of the viral protein E7”.

Q: And the “apoptosis, i.e., cell death” value [3]?
A: Its value is “promotes apoptosis”.

Q: What about the cellular growth [3] of the same substance?
A: Its cellular growth is “inhibits cellular growth”.

Q: And the “treated women with improvement of general clinical status” value ([4]; 88 women)?
A: Its value is 60%.

Q: What about the “women with moderate lesions responding positively to the treatment” value [4, 8] of the same substance?
A: Its value is 100%.

Q: And the “women with serious lesions responding positively to the treatment” value [4, 8]?
A: The value was 71%.

Q: And the “level of p53 protein expression” value [5]?
A: The value was “increases the level of p53 protein expression”.

Q: What does the source list for hyaluronic acid?
A: apoptosis (cell death) compared to control [1]: significantly increased apoptosis; process of wound healing in comparison with the control [6]: significantly accelerates the process of wound healing; mucous membrane [7]: restores the mucous membrane; symptoms related to vaginal atrophy (itching, burning, and dyspareunia) [7]: dramatically reducing symptoms

From patent publication US20260191819A1, “COMPOSITION FOR THE TREATMENT OF THE HUMAN PAPILLOMAVIRUS INFECTION (HPV)” (LO.LI. PHARMA S.R.L., priority 2022, published 2026)
